Measurements published in patent publication US12083084B2, “Method for enhancing energy production and metabolism in cells” (REPLICON HEALTH OY, priority 2013, dated 2024).
Values joined by “and” are separate entries in the source; they are usually repeats but may differ in a detail not shown here. Identical values can stand only once. “Also recorded” adds a separate entry of the source.

Legend:
[1] = test system: primary human hepatocytes; test: Cell viability by LDH release (CytoTox-One) in primary human hepatocytes; format: cell-based
Procedure: Primary human hepatocytes were purchased from Celsis In Vitro Technologies (1450 South Rolling Road Baltimore, MD 21227, USA). […] According to the information provided by the Celsis, hepatocytes from each donor should have at least 70% viability and more than 5 million viable cells. The medium for the culture of hepatocytes was provided by Celsis. They were InVitroGRO CP (for plating) medium (Z99029) and InVitroGRO HI (for incubation) medium (Z99009). Antibiotics (Torpedo Antibiotics Mix, Z990007) were also from Celsis. The thaw, plating and culture of cells were carried out according to the instruction provided by the Celsis In Vitro Technologies.
For the measurement of cell viability after treatment of test compound, CytoTox-One Homogeneous Membrane Integrity Assay kit (Promega, G7891) was used. The CytoTox-One Assay is a rapid fluorescent measure of the release of lactate dehydrogenase (LDH) from cells with a damaged membrane. The number of […] cells correlates to the fluorescence intensity determined by a fluorescence plate reader (Hidex Chameleon V multiplate reader, Hidex Oy, Turku, Finland) with excitation 544 nm and emission 590 nm. For the measurement of cellular reactive oxygen species (ROS), DCFDA Cellular ROS Detection Assay Kit from Abcam (ab113851) was used. Reactive oxygen species (ROS) assay kit (ab113851) uses the cell permeant reagent 2′,7′-dichlorofluorescein diacetate (DCFDA), a fluorogenic dye that measures hydroxyl, peroxyl and other ROS activity with the cell. The activity of ROS was measured by a fluorescence plate reader (Hidex) with excitation/emission wavelengths of 485 nm/535 nm.
The culture of primary hepatocytes was carried out based on the instructions provided by Celsis. After thawing, the cells were suspended in InVitroGRO CP medium. Thereafter the viability of cells was determined using the Trypan Blue exclusion method. Then the concentration of cells was adjusted using InVitroGRO CP medium, so about 30000-35000 cells/100 μl/well can be seeded in collagen I coated 96 well plate (BD, 734-0248).
After seeding, the cells were cultured overnight in the cell culture incubator (Sanyo MCO 18) at atmosphere of 95% air, 5% CO2 at 37° C. Thereafter, the culture medium for the cells was changed to InVitroGRO Hi (Hi Medium) containing test compound (D-glyceric acid calcium salt dehydrate) at the concentrations of 0, 0.2, 2 and 20 μg/ml (study 1, Table 1.1.1) and 0, 0.4, 2 and 10 μg/ml (study 2, Table 1.1.2).
After 24 h (in study 1) and 20 h (in studies 2-4) incubation medium was renewed. Second renewal of the incubation medium occurred at 48 h in study 1 and at 40 h in other studies. ROS and LDH were measured after 1.5-2 hours after last change of the medium, i.e. in a situation with moderate metabolic stress.
The measurement of LDH from medium (leaked LDH) and from cell and medium (total LDH) was carried out according to the instruction provided by the Promega (G7891). The plate was incubated at an incubator to achieve a temperature of 22° C. Thereafter, equal volume of CytoTox-ONE Reagent to cell culture medium (100 μl) was added to each well and mix for 30 seconds. Then they were incubated for 10 min at 22° C., and then 50 μl of Stop Solution was added to each well. After gentle mixing, the fluorescence signal was measured at an excitation wavelength of 560 nm and emission wavelength of 590 nm using the Hidex Chameleon V multiplate reader (Hidex Oy, Turku, Finland).
For the total LDH measurement, all the steps are same except a 2 μl of Lysis Solution (per 100 μl original volume) will be added to the each well to lyse the cells before CytoTox-ONE Reagents will be added.
For the LDH and ROS assays, individual values of each measurement were stored and average value of fluorescence signals of various repeats of each treatment at studied time point were calculated and compared. […] Viability (LDH) measurements contained 4-6 repeats depending on the study. […]

[2] = Plasma sample analyses on PYR, ALA, LAC and NO; format: in vivo, human
Procedure: As mentioned above also plasma samples were collected from S1 and S9, at 0 h and 1 h both in 12 h and 4.5 day test, i.e. 16 observations were gathered with either DGAcs or zero control situations. Additionally in statin group (S10 and S11) 2×2 measurements were done. Altogether there were 20 observations and, thus 10 differences between control and DGAcs administration can be calculated. Pyruvate concentrations were measured using Pyruvate Assay Kit from Sigma (MAK071 Sigma). Alanine concentrations were measured using Sigma Alanine Assay Kit (MAK001). Lactate concentrations were measured using Sigma Lactate Assay Kit (MAK064). And finally nitric oxide (NO) concentrations were measured using OxiSelect™ In Vitro Nitric Oxide (Nitrite/Nitrate) Assay Kit from Nordic Biosite Oy.

[3] = test system: rat cortical neurons; test: Protection against NMDA-induced excitotoxity; format: cell-based
Procedure: Cell culture. Cortical neurons were dissected from P1 rats and cultured in 96-well plates up to 7 days in the medium containing: neurobasal medium, 1.5% B27 supplement, 1 mM L-glutamine, penicillin/streptomycin.
Cell Viability/Cytotoxicity. Cell Viability was Detected by LDH Tests Like in Examples 1.1-1.2.
Cell treatment: concentration of DGAcs (10, 50 and 100 μg/ml) was added into cell culture medium at 4 DIV. After 24 h (at 5 DIV) 25% of medium was changed to fresh containing 1.5× concentration of DGAcs. Same treatment (change 25% with 1.5× concentration) was repeated at 6 DIV. The cells were transferred into Mg^2+-free Locke's buffer containing the same concentrations of DGAcs immediately before imaging experiments (at 7 DIV). For controls the same amount of medium was changed without addition of DGAcs.
In analyzing the results from the test set up starting at 7 DIV with 1 h NMDA stimulation (and 23 h follow up period), separate viability loss caused by CR can be taken into account by indexing 25 μM NMDA and 50 μM NMDA groups with the results of 0 NMDA control (see FIG. 14a). […] Even without correction for CR induced viability loss, DGAcs treatment induces very clear protection against NMDA-induced excitotoxity in 50 μM NMDA group (see FIG. 14b: “Viability after 24 hours with 1 h NMDA stimulation, indexed to 0 NMDA”)

[4] = average of measurements 1-10, vs zero control
[5] = healthy volunteer group only, S1 and S9

Compound: O=C(O)[C@H](O)CO [DGA, D-glyceric acid]
- viability compared to 0 dose ([1]; donor alpha, 0.4 DGA dose, Hi Medium+palmitic acid, FIG. 10c): statistically significant decrease in viability; also recorded: decline is statistically significant
- hepatocytes viability increased in some cases by ([1]; donor alpha, FIG. 10c): 40-60%
- viability of cells increased on average by ([1]; primary human hepatocytes): 5-10%
- decline in NO ([2]; healthy individuals): 13%
- increase of plasma/blood pyruvate levels ([2]; summary statement, humans, Example 2.3.3): 20-25% and 25%
- excitotoxity repetition by the private CRO ([3]; confirmatory study, in line with first results): not statistically significant

Compound: O.O.O=C([O-])[C@H](O)CO.O=C([O-])[C@H](O)CO.[Ca+2] [DGAcs, D-glyceric acid, calcium salt dehydrate]
- viability compared to 0 dose (in words) ([1]; primary human hepatocytes, standard treatment, moderate metabolic stress): modestly increase the viability
- increase of plasma pyruvate ([2]; S1 and S9, 1 hour after administering 75 000 mg of glucose): ~20%
- decline in NO ([2]; all measurements, vs control): approximately 10%
- Average Change of the Concentration, plasma Alanine [2, 4]: 3.5%
- Average Change of the Concentration, plasma Nitric Oxide [2, 4]: −9.9%
- Average Change of the Concentration, plasma Pyruvate [2, 4]: 25.9%
- Average Change of the Concentration, plasma Lactate ([2]; average of measurements, vs zero control): −31.9%
- Average Change of the Concentration, plasma Nitric Oxide (BMI < 25) ([2]; average, subjects with BMI < 25, vs zero control): −13.4%
- decrease of plasma lactate [2, 5]: ~38%
- increase of plasma pyruvate [2, 5]: approximately 25%
- decrease of plasma/blood lactate ([2]; summary statement, humans, compared to control, Example 2.3.3): 31.9% and 30%
- protection against NMDA-induced excitotoxity (LDH viability) ([3]; 25 μM NMDA and 50 μM NMDA groups, 1 h NMDA at 7 DIV + 24 h, indexed to 0 NMDA): very clear and significant protection
